Assays:
Puccinia recondita = experiment: In vivo preventive test on Puccinia recondita (brown rust on wheat); settings: wheat, spray, graded 12 days after contamination vs control plants
Protocol: In Vivo Preventive Test on Puccinia recondita (Brown Rust on Wheat) […] Wheat plants (“Scipion” variety), sown in starter cups on a 50/50 peat soil-pozzolana substrate and grown at 22° C., are treated at the 1-leaf stage (10 cm height) by spraying with the active ingredient prepared as described above. Plants, used as controls, are treated with the mixture of acetone/tween/DMSO/water not containing the active material. After 24 hours, the plants are contaminated by spraying the leaves with an aqueous suspension of Puccinia recondita spores (100 000 spores per ml). The spores are collected from an infected plant and are suspended in water containing 2.5 ml/1 of Tween 80 at 10%. The contaminated wheat plants are incubated for 24 hours at 20° C. and at 100% relative humidity, and then for 10 days at 20° C. and at 70-80% relative humidity. Grading (% of efficacy) is carried out 12 days after the contamination, in comparison with the control plants.

Septoria tritici = experiment: In vivo preventive test on Septoria tritici (leaf spot on wheat); settings: preventive spray, wheat plants, grading 24 days after contamination
Protocol: In Vivo Preventive Test on Septoria tritici (Leaf Spot on Wheat)
(§1) The active ingredients tested are prepared by homogenization in a mixture of acetone/tween/DMSO, and then diluted with water to obtain the desired active material concentration.
Wheat plants (“Scipion” variety), sown in starter cups on a 50/50 peat soil-pozzolana substrate and grown at 22° C., are treated at the 1-leaf stage (10 cm height) by spraying with the active ingredient prepared as described above. Plants, used as controls, are treated with the mixture of acetone/tween/DMSO/water not containing the active material.
After 24 hours, the plants are contaminated by spraying the leaves with an aqueous suspension of cryopreserved Septoria tritici spores (500 000 spores per ml). The contaminated wheat plants are incubated for 72 hours at 18° C. and at 100% relative humidity, and then for 21 days at 90% relative humidity.
Grading (% of efficacy) is carried out 24 days after the contamination, in comparison with the control plants.

Sphaerotheca fuliginea = experiment: In vivo preventive test on Sphaerotheca fuliginea (powdery mildew on cucurbits); settings: preventive spray, gherkin plants, grading 12 days after contamination
Protocol: In Vivo Preventive Test on Sphaerotheca fuliginea (Powdery Mildew on Cucurbits)
(§2) The active ingredients tested are prepared by homogenization in a mixture of acetone/tween/DMSO and then diluted with water to obtain the desired active material concentration.
(§3) Gherkin plants (“Vert petit de Paris” variety), sown in starter cups on a 50/50 peat soil-pozzolana substrate and grown at 24° C., are treated at the Z11 cotyledon stage by spraying with the active ingredient prepared as described above. Plants, used as controls, are treated with the mixture of acetone/tween/DMSO/water not containing the active material.
After 24 hours, the plants are contaminated by spraying the cotyledons with an aqueous suspension of Sphaerotheca fuliginea spores (100 000 spores per ml). The spores are collected from infected plants. The contaminated gherkin plants are incubated at about 20° C. and at 70-80% relative humidity.
Grading (% of efficacy) is carried out 12 days after the contamination, in comparison with the control plants.

[1] = log P by HPLC on reversed phase columns (EEC directive 79/831 Annex V.A8); format: physicochemical; settings: Table 1, formula (I), HPLC/LC-MS at pH 2.7, 0.1% formic acid in water / acetonitrile, gradient 10% to 95%; for chromatographic logP: reversed phase HPLC columns
Botrytis cinerea = experiment: In vivo preventive test on Botrytis cinerea (grey mould), gherkin plants; settings: gherkin, spray, graded 4 to 5 days after contamination vs control plants
Protocol: In Vivo Preventive Test on Botrytis cinerea (Grey Mould)
as §2, §3
After 24 hours, the plants are contaminated by spraying the cotyledons with an aqueous suspension of cryopreserved Botrytis cinerea spores (50 000 spores per ml). The spores are suspended in a nutrient solution composed of 10 g/L of PDB, 50 g/L of D-Fructose, 2 g/L of NH4NO3 and 1 g/L of KH2PO4. The contaminated gherkin plants are incubated at 17° C. and at 90% relative humidity.
Grading (% of efficacy) is carried out 4 to 5 days after the contamination, in comparison with the control plants.

Uromyces appendiculatus = experiment: In vivo preventive test on Uromyces appendiculatus (bean rust); settings: preventive spray, bean plants, grading 11 days after contamination
Protocol: In Vivo Preventive Test on Uromyces appendiculatus (Bean Rust) […] Bean plants (“Saxa” variety), sown in starter cups on a 50/50 peat soil-pozzolana substrate and grown at 24° C., are treated at the 2-leaf stage (9 cm height) by spraying with the active ingredient prepared as described above. Plants, used as controls, are treated with the mixture of acetone/tween/DMSO/water not containing the active material. After 24 hours, the plants are contaminated by spraying the leaves with an aqueous suspension of Uromyces appendiculatus spores (150 000 spores per ml). The spores are collected from infected plants and are suspended in water containing 2.5 ml/1 of Tween 80 at 10%. The contaminated bean plants are incubated for 24 hours at 20° C. and at 100% relative humidity, and then for 10 days at 20° C. and at 70-80% relative humidity. Grading (% of efficacy) is carried out 11 days after the contamination, in comparison with the control plants.

Alternaria brassicae = experiment: In vivo preventive test on Alternaria brassicae (leaf spot on radish); settings: spray, graded 6 days after contamination vs control plants
Protocol: In Vivo Preventive Test on Alternaria brassicae (Leaf Spot on Radish)
as §1
Radish plants (“Pernod Clair” variety), sown in starter cups on a 50/50 peat soil-pozzolana substrate and grown at 17° C., are treated at the cotyledon stage by spraying with the active ingredient prepared as described above. Plants, used as controls, are treated with the mixture of acetone/tween/DMSO/water not containing the active material.
After 24 hours, the plants are contaminated by spraying the cotyledons with an aqueous suspension of Alternaria brassicae spores (50 000 spores per ml). The spores are collected from a 15-day-old culture. The contaminated radish plants are incubated at 20° C. and at 100% relative humidity.
Grading (% of efficacy) is carried out 6 days after the contamination, in comparison with the control plants.

SMILES	Eff. % (Puccinia recondita; dose 500 ppm) [%]	Eff. % (Septoria tritici; 500 ppm) [%]	logP^[a] [1]	Eff. % (Puccinia recondita; dose 100 ppm) [%]	Eff. % (Uromyces appendiculatus; 500 ppm) [%]	further results
CON=C1c2cccc(NC(=O)c3cccnc3C(F)F)c2CC1(C)C (mixture of isomers) [Example 34]	93	100	–	–	–	Eff. % (Sphaerotheca fuliginea; 500 ppm): 100%
CCC1(C)CC(C)c2c(NC(=O)c3cc(C)cnc3C(F)F)cccc21 (mixture of isomers) [Example 82]	–	–	3.94^[a]	94	–	Eff. % (Botrytis cinerea; dose 100 ppm): 80%; Eff. % (Uromyces appendiculatus; 100 ppm): 88%
CCC1(CC)OC(C)c2c(NC(=O)c3cccnc3C(F)F)cccc21 (racemic) [Example 25]	98	86	2.86^[a]	–	100	Eff. % (Botrytis cinerea; dose 500 ppm): 96%
CON=C1CC(C)c2c(NC(=O)c3cccnc3C(F)F)cccc21 (racemic) [Example 30]	86	88	2.32^[a]	–	98	–
CCC1(CC)Cc2c(NC(=O)c3cccnc3C(F)F)cccc2C1C (racemic) [Example 60]	98	100	4.11^[a]	–	100	Eff. % (Alternaria brassicae; dose 500 ppm): 100%; Eff. % (Sphaerotheca fuliginea; 500 ppm): 100%
CCC1OC(C)(C)c2cccc(NC(=O)c3cccnc3C(F)F)c21 (racemic) [Example 77]	–	–	2.39^[a]	98	–	Eff. % (Alternaria brassicae; dose 100 ppm): 75%; Eff. % (Septoria tritici; 100 ppm): 93%; Eff. % (Sphaerotheca fuliginea; 100 ppm): 98%; Eff. % (Uromyces appendiculatus; 100 ppm): 100%
CCC1(CC)CC(C)c2c(NC(=O)c3cc(C)cnc3C(F)F)cccc21 (racemic) [Example 79]	–	–	4.31^[a]	89	–	Eff. % (Botrytis cinerea; dose 100 ppm): 80%
CCC1(CC)CC(C)c2c(NC(=O)c3ccc(Cl)nc3C(F)F)cccc21 (racemic) [Example 80]	–	–	4.72^[a]	94	–	Eff. % (Botrytis cinerea; dose 100 ppm): 70%; Eff. % (Uromyces appendiculatus; 100 ppm): 91%
CCCCON=C1CCc2c(NC(=O)c3cccnc3C(F)F)cccc21 [Example 6]	–	–	3.44^[a]	–	–	Eff. % (Alternaria brassicae; dose 500 ppm): 71%
CCCON=C1CCc2c(NC(=O)c3cccnc3C(F)F)cccc21 [Example 7]	–	–	3.00^[a]	–	71	Eff. % (Alternaria brassicae; dose 500 ppm): 79%
CC1CC(C)(C)c2c(C3CC3)ccc(NC(=O)c3cccnc3C(F)F)c21 (stereo not drawn) [Example 10]	100	–	3.79^[a]	–	99	Eff. % (Botrytis cinerea; dose 500 ppm): 100%
Cc1ccc(NC(=O)c2cccnc2C(F)F)c2c1C(C)(C)CC2C (stereo not drawn) [Example 11]	98	–	3.41^[a]	–	–	Eff. % (Botrytis cinerea; dose 500 ppm): 99%
CC1OC(C)(C)c2c(Br)ccc(NC(=O)c3cccnc3C(F)F)c21 (stereo not drawn) [Example 15]	86	83	2.89^[a]	–	81	–
O=C(Nc1cccc2c1CCC21CC1)c1cccnc1C(F)F [Example 20]	94	–	2.78^[a]	–	100	Eff. % (Botrytis cinerea; dose 500 ppm): 90%
Cc1cnc(C(F)F)c(C(=O)Nc2ccc(F)c3c2C(C)CC3(C)C)c1 (stereo not drawn) [Example 23]	94	71	3.64^[a]	–	93	Eff. % (Sphaerotheca fuliginea; 500 ppm): 94%
CCC1Cc2c(NC(=O)c3cc(C)cnc3C(F)F)cccc2C1(C)C (stereo not drawn) [Example 38, 2-(difluoromethyl)-N-(2-ethyl-1,1-dimethyl-2,3-dihydro-1H-inden-4-yl)-5-methylnicotinamide]	94	–	–	–	100	chromatographic logP [1]: 4.06; Eff. % (Alternaria brassicae; dose 500 ppm): 80%
CC1OC(C)(C)c2cccc(NC(=O)c3c(C(F)F)ccnc3C(F)F)c21 (stereo not drawn) [Example 40]	81	71	2.66^[a]	–	100	–
CC1(C)Cc2cccc(NC(=O)c3ccc(Cl)nc3C(F)F)c2C1 [Example 47]	72	71	3.76^[a]	–	–	–
CC1(C)Cc2cccc(NC(=O)c3cccnc3C(F)F)c2C1 [Example 49]	100	86	3.06^[a]	–	100	Eff. % (Alternaria brassicae; dose 500 ppm): 89%; Eff. % (Sphaerotheca fuliginea; 500 ppm): 100%
CC1CC(CC(C)(C)C)c2cccc(NC(=S)c3cccnc3C(F)F)c21 (stereo not drawn) [Example 59]	98	75	4.87^[a]	–	100	Eff. % (Alternaria brassicae; dose 500 ppm): 88%; Eff. % (Sphaerotheca fuliginea; 500 ppm): 98%
CC1c2cccc(NC(=O)c3cccnc3C(F)F)c2CC1(C)C (stereo not drawn) [Example 62]	100	100	3.35^[a]	–	100	Eff. % (Alternaria brassicae; dose 500 ppm): 100%; Eff. % (Sphaerotheca fuliginea; 500 ppm): 98%
CC1c2cccc(NC(=O)c3ccc(Cl)nc3C(F)F)c2CC1(C)C (stereo not drawn) [Example 64]	98	–	4.04^[a]	–	84	Eff. % (Sphaerotheca fuliginea; 500 ppm): 94%
CCC1Cc2c(NC(=S)c3cc(C)cnc3C(F)F)cccc2C1(C)C (stereo not drawn) [Example 70, 2-(difluoromethyl)-N-(2-ethyl-1,1-dimethyl-2,3-dihydro-1H-inden-4-yl)-5-methylpyridine-3-carbothioamide]	–	–	–	98	–	chromatographic logP [1]: 4.41; Eff. % (Uromyces appendiculatus; 100 ppm): 100%
CC1c2c(cccc2NC(=O)c2cccnc2C(F)F)CC1(C)C (stereo not drawn) [Example 85]	–	–	3.29^[a]	97	–	Eff. % (Botrytis cinerea; dose 100 ppm): 98%; Eff. % (Septoria tritici; 100 ppm): 79%; Eff. % (Sphaerotheca fuliginea; 100 ppm): 100%
CCC1CC(C)c2c(NC(=O)c3cccnc3C(F)F)cccc21 (stereo not drawn) [Example 88]	–	–	3.37^[a]	88	–	Eff. % (Botrytis cinerea; dose 100 ppm): 89%
CCC1(CC)c2cccc(NC(=O)c3cccnc3C(F)F)c2CC1C (stereo not drawn) [Example 91]	–	–	3.99^[a]	94	–	Eff. % (Sphaerotheca fuliginea; 100 ppm): 98%; Eff. % (Uromyces appendiculatus; 100 ppm): 100%

Reference: patent US9376391B2, “Difluoromethyl-nicotinic-tetrahydronaphthyl carboxamides as fungicides” (BAYER CROPSCIENCE AKTIENGESELLSCHAFT, priority 2012, dated 2016)
